Assay results as given in patent US7345068B2, “Aromatic amino acid derivatives and medicinal compositions” (priority 2002, dated 2008).

How the values were obtained:
[1] = molecular target: T1, human LAT1 (hLAT1) (Homo sapiens, UniProt Q01650); assay: Inhibition of leucine uptake into hLAT1 expressing Xenopus oocytes; assay type: cell-based; conditions: 10 μM 14C-Leu, 30 minutes uptake, oocytes with hLAT1 and h4F2hc cRNA
T1 construct: expressed in transfected cells; host or cells: Xenopus laevis oocytes injected with cRNA
T1 sequence (Q01650 whole entry): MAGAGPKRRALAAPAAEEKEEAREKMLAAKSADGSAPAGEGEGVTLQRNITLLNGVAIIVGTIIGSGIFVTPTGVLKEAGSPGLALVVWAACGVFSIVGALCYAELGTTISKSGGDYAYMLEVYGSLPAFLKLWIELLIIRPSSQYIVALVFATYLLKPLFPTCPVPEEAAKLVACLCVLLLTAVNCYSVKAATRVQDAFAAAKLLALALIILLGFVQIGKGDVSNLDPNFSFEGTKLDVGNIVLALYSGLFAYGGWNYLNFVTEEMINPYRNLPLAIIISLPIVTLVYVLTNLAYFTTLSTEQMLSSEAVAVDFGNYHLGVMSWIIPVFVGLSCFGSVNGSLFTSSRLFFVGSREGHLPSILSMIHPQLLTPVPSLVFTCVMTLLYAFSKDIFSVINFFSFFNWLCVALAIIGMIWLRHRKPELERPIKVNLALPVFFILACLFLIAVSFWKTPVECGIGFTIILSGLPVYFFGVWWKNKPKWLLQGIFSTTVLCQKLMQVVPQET
Description: (§1) 1) First, human LAT1 (hereinafter referred to as hLAT1), human LAT2 (hereinafter referred to as hLAT2) and human 4F2hc (hereinafter referred to as h4F2hc) were linearized by restriction enzyme treatment. After ethanol precipitation, they were dissolved in a DEPC treatment solution to prepare a mold cDNA. Then, in vitro transcription reaction was carried out in the following manner.
(§2) Reaction composition (50 μl in total) • Mold cDNA 1.5 μg • RNasin RNase inhibitor (Promega) 100 U • rNTP (Amersham. Pharmacia) 10 mM each (rGTP was 1 mM) • DTT 30 mM • m7G(5′)ppp(5′)G (Amersham. Pharmacia) […] • RNA polymerase (Stratagene) 50 U • Transcription buffer
(§3) As the RNA polymerase for hLAT1, hLAT2 and h4F2hc, T3, SP6 and T7 were used, respectively.
(§4) After the above reagents were mixed, they were reacted at 37° C. for 10 minutes, added with 1 μL of 5 mM rGTP, and reacted again at 37° C. for 10 minutes. Further, 1 μL of 5 mM rGTP was added and the reaction was carried out again at 37° C. for 10 minutes. Then, RNase-free DNase (Stratagene) was added and mixed, followed by incubation at 37° C. for 20 minutes. The reaction solution was sequentially extracted with phenol/chloroform, and then with chloroform. Then, half amount of 7.5 M NH4OAc and 2.5-fold amount of cold ethanol were added to perform ethanol precipitation. After centrifugation at 15000 rpm for 30 minutes, the resulting precipitate was washed with cold 80% ethanol and dissolved in 100 μL of a DEPC treatment solution. Thereafter, ethanol precipitation was performed again. The precipitate obtained by centrifugation at 15000 rpm for 30 minutes was washed with cold 80% ethanol and dried for 20 minutes in a centrifugal concentrator. Then, it was dissolved in a DEPC treatment solution to 0.5 mg/mL to prepare a cRNA solution. Thus, cRNA was prepared by in vitro transcription reaction.
(§5) 2) Xenopus laevis was anesthetized by immersing into an anesthetic solution (0.2% MS-222, 0.3% KHCO3), and then cut open in the abdominal region on ice to take out an oocyte mass under the peritoneum. The extracted oocyte mass was shredded with tweezers, which was added to an OR2 culture medium (5 mM HEPES, 82.5 mM NaCl, 2 mM KCl, 1 mM MgCl2, pH 7.5) containing 2 mg/mL of collagenase, incubated at room temperature for about 30 minutes, washed with the OR2 culture medium and transferred into a Barth culture medium (10 mM HEPES, 88 mM NaCl, 1 mM KCl, 0.33 mM Ca(NO3)2, 0.41 mM CaCl2, 0.82 mM MgSO4, 2.4 mM NaHCO3, pH 7.4).
(§6) Then, a follicular cell layer covering the oocytes was peeled under a stereoscopic microscope to isolate the oocytes, to which 50 nL of a cRNA solution was added, respectively. As the cRNA, an equimolar mixture of hLAT1 cRNA and h4F2hc cRNA was injected into the oocytes for hLAT1 expression, and an equimolar mixture of hLAT2 cRNA and h4F2hc cRNA was injected into the oocytes for hLAT2 expression.
(§7) The control cell was injected with distilled water.
(§8) 3) The oocytes after the injection were cultured in a Barth culture medium containing gentamicin for 2 days, from which healthy oocytes were selected and transferred to a 24-well plate at 8-10 cell/well.
(§9) First, after washing twice with choline 100 (5 mM HEPES, 100 mM choline Cl, 2 mM KCl, 1.8 mM CaCl2, 1 mM MgCl2, pH 7.4) at room temperature, choline 100 containing 10 μM ^14C-Leu and specimens of various concentrations was added for an uptake for 30 minutes. Then, after washing with choline 100 of 4° C. six times, the oocytes were transferred to vials one by one and 250 μL of 10% SDS was added thereto, which was shaken at room temperature for an hour to be dissolved. After an hour, the solution was added with 3 mL of a scintillator to measure the radioactivity using a liquid scintillation counter. Inhibition rate was calculated by the following formula using an average value of 8 to 10 cells. Inhibition rate (%)=100−(radioactivity of the well added with the test compound)/(radioactivity of the well not added with the test compound)×100 […]

[2] = test system: human LAT1 (hLAT1); assay: as above; assay type: cell-based; conditions: IC50 hLAT2 expressing cells / IC50 hLAT1 expressing cells
Description: as §1, §2, §3, §4, §5, §6, §7, §8, §9

[3] = molecular target: T2, human LAT2 (hLAT2) (Homo sapiens, UniProt Q9UHI5); assay: Inhibition of leucine uptake into hLAT2 expressing Xenopus oocytes; assay type: cell-based; conditions: 10 μM 14C-Leu, 30 minutes uptake, oocytes with hLAT2 and h4F2hc cRNA
T2 construct: expressed in transfected cells; host or cells: Xenopus laevis oocytes injected with cRNA
T2 sequence (Q9UHI5 1-535): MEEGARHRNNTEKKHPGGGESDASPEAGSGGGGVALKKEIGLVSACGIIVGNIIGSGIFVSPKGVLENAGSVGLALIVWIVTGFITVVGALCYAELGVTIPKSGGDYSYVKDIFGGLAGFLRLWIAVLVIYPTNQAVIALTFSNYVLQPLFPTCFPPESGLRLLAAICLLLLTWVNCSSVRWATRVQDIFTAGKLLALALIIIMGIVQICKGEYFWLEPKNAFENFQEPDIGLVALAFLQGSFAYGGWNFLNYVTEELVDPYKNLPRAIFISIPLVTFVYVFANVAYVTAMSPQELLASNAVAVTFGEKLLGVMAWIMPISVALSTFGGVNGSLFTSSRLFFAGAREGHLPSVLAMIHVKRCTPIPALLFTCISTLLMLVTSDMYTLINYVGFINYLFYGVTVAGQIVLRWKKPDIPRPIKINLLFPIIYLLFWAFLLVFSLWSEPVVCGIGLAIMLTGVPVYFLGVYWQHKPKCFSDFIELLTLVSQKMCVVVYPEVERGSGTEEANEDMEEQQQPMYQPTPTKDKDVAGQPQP
Description: as §1, §2, §3, §4, §5, §6, §7, §8, §9

[4] = test system: sarcoma 180 cells; assay: Sarcoma 180 subcutaneous implant in mice, tumor weight; assay type: in vivo, ICR mice; conditions: 100 mg/kg intravenously for 7 days; tumor weight 10 days after implantation
Description: In an inguinal region of ICR mice, 1×10^6 sarcoma 180 cells were implanted subcutaneously. After 24 hours from the implantation, administration of the test compounds (Example 6-3) and Example 49-3)) was started, which was continued intravenously for 7 days. Each of the test compounds was dissolved in a physiologic saline containing 10% DMSO and 10% Tween 80 so that the amount of the test compound became 100 mg/kg, which was intravenously administered in an amount of 0.1 ml per 10 g of body weight. After 10 days from the implantation, tumor weight was measured and a proliferation inhibiting rate was calculated by the following formula to be compared with that of nontreated controls. Proliferation inhibiting rate (T/C)=[1−(average tumor weight of the group added with the test compound/average tumor weight of the control group)]×100

[5] = molecular target: T3, LAT1 (Homo sapiens, UniProt Q01650); assay: LAT1 inhibiting activity: inhibition of 14C-L-leucine uptake in T24 cells; assay type: cell-based; conditions: 1 μM 14C-Leu, 1-minute uptake
T3 construct: Using human bladder cancer cell strain T24 cells, in which LAT1 only was strongly expressed; endogenous in cells; host or cells: T24 human bladder cancer cells
T3 sequence (Q01650 whole entry): as the sequence (Q01650 whole entry) above
T3 sequence (P08195 102-630 partner): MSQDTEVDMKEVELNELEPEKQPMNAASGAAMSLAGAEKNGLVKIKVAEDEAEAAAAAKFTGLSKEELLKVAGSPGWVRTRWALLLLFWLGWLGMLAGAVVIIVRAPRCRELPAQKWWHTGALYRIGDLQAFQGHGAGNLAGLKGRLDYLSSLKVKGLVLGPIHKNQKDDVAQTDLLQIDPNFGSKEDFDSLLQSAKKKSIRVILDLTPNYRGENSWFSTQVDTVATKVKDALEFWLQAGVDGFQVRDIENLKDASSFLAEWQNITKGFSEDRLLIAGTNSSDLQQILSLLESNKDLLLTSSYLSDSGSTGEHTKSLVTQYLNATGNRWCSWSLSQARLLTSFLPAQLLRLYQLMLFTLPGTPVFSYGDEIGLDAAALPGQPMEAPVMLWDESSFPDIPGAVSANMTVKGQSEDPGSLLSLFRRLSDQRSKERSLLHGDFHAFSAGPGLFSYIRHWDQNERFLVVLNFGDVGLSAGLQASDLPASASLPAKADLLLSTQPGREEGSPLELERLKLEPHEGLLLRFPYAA
Description: 1) To each of the weighed test compounds, DMSO was added to prepare a 100 mM solution or suspension as a DMSO stock. In an assay, the stock was diluted 1,000 fold with a buffer described below. The final concentration of the test compound was 100 μM and the final concentration of DMSO was 0.1%.
2) The LAT1 inhibiting activity of the test compound was determined in the following manner. Using human bladder cancer cell strain T24 cells, in which LAT1 only was strongly expressed, inhibiting activity of each test compound against “^14C”-L-leucine uptake was determined as the LAT1 inhibiting activity.
T24 cells in a logarithmic growth-phase were transferred to a 24-well plate at 0.8×10^5 cell/well and cultured at 37° C. for 2 days. After the plate was incubated at 37° C. on a water bath for 5 minutes, the fixed cells were washed three times with a Hank's balanced salt solution (HBSS: 25 mM HEPES, 125 mM choline chloride, 5.6 mM glucose, 4.8 mM KCl, 1.2 mM MgSO4, 1.2 mM KH2PO4, 1.3 mM CaCl2, pH 7.4) warmed to 37° C., not containing Na^+, to which 500 μl of HBSS (37° C.) was added. Then, further incubation was carried out for 7 minutes.
After the incubation was finished, a supernatant was replaced with HBSS containing 1 μM ^14C-Leu and 100 μM test compound (37° C.), followed by 1-minute uptake. Then, the cells were washed three times with HBSS of 4° C. The washed cells were added with 500 μl of 0.1 N NaOH to dissolve the cells for 20 minutes. The cell solution was transferred to a vial, to which 3 ml of a scintillator was added to measure the radioactivity with a liquid scintillation counter.
Inhibition % was calculated by the following formula. Inhibition %=100−(radioactivity of the well added with the test compound)/(radioactivity of the well not added with the test compound)×100

[6] = Acute toxicity test, intravenous administration of mice (LD50); conditions: mouse, in vivo
Description: Further, with respect to the compounds of Examples 77-79 and Example 98, an acute toxicity test for intravenous administration of mice were carried out to obtain LD50.

Row | SMILES | IC50 [1] | IC50 [3] | melting point | IC50 [5] | Selectivity (L2/L1) [2] | proliferation inhibiting rate [4] | LD50 [6]
1 | N[C@@H](Cc1cc(Cl)c(OCCc2cccc3nc(-c4ccccc4)oc23)c(Cl)c1)C(=O)O [Example 23] | < 1000 nM | > 100000 nM | 205 to 215 °C (dec.) | – | ≥ 100 times | – | –
2 | N[C@@H](Cc1cc(Cl)c(OCCc2csc(-c3ccccc3)n2)c(Cl)c1)C(=O)O [Example 15] | < 1000 nM | > 100000 nM | 205 to 210 °C (dec.) | – | ≥ 100 times | – | –
3 | N[C@@H](Cc1cccc(OCCc2ccc3ccccc3c2)c1)C(=O)O [Example 59, 3-[2-(2-naphthyl)ethoxy]-L-phenylalanine] | – | < 1000 nM | 210 to 214 °C (dec.) | – | ≤ 0.1 times | – | –
4 | N[C@@H](Cc1cc(Cl)c(OCCc2coc(-c3ccccc3)n2)c(Cl)c1)C(=O)O [Example 9] | 700 nM | 69000 nM | 198 to 205 °C | – | 100 times | – | –
5 | N[C@@H](Cc1cc(Cl)c(OCc2cccc3nc(-c4ccccc4)oc23)c(Cl)c1)C(=O)O [Example 6-2), 3,5-dichloro-O-[(2-phenyl)-benzoxazol-7-yl]methyl-L-tyrosine] | 100 nM | – | 233 to 238 °C (dec.) | 300 nM | 1000 times | – | –
6 | NC1(C(=O)O)CC2CCC1C2 (stereo not shown) [BCH, 2-aminobicyclo-(2,2,1)-heptane-2-carboxylic acid, reference compound] | – | – | – | 100000 nM | – | – | ≥ 300 mg/kg
7 | COc1ncc(-c2nc3cccc(COc4c(Cl)cc(C[C@H](N)C(=O)O)cc4Cl)c3s2)c(OC)n1 [Example 74] | – | – | 210 to 215 °C (dec.) | 950 nM | – | – | –

More lines, main results first:

Row | IC50 [1] | IC50 [3] | melting point | IC50 [5] | SMILES | Selectivity (L2/L1) [2] | proliferation inhibiting rate [4] | LD50 [6]
8 | – | < 1000 nM | 198 to 202 °C (dec.) | – | N[C@@H](Cc1cccc(OCCc2ccc3c(c2)CCCC3)c1)C(=O)O [Example 60, 3-[2-[2-(5,6,7,8-tetrahydro-naphthyl)]ethoxy]-L-phenylalanine] | ≤ 0.1 times | – | –
9 | – | – | 225 to 225.5 °C (dec.) | – | COC(=O)[C@@H](N)Cc1cc(Cl)c(OCc2cccc3nc(-c4ccccc4)oc23)c(Cl)c1.Cl [Example 6-3), 3,5-Dichloro-O-[(2-phenyl)-benzoxazol-7-yl]methyl-L-tyrosine methyl ester hydrochloride] | – | 52.2% | –
10 | – | – | 180 to 186 °C (dec.) | 710 nM | N[C@@H](Cc1cccc(Oc2cccc3ccccc23)c1)C(=O)O [Example 54] | – | – | –
11 | < 1000 nM | > 100000 nM | 232 to 233 °C (dec.) | – | N[C@@H](Cc1cc(Cl)c(OCCc2coc(-c3ccc4ccccc4c3)n2)c(Cl)c1)C(=O)O [Example 17] | ≥ 100 times | – | –
12 | – | – | 209 to 211 °C (dec.) | – | COC(=O)[C@@H](N)Cc1cccc(Oc2ccc3ccccc3c2)c1.Cl [Example 49-3), 3-(2-naphthyloxy)-L-phenylalanine methyl ester hydrochloride] | – | 41.3% | –
13 | – | – | 187 to 192 °C (dec.) | 520 nM | N[C@@H](Cc1cccc(Oc2cccc(-c3ccccn3)c2)c1)C(=O)O [Example 99] | – | – | –
14 | – | – | 205 to 210 °C (dec.) | 500 nM | N[C@@H](Cc1cccc(Oc2ccc3[nH]ccc3c2)c1)C(=O)O [Example 52] | – | – | –
15 | – | 200 nM | 234 to 237 °C (dec.) | – | N[C@@H](Cc1cccc(Oc2ccc(Oc3ccc(O)cc3)cc2)c1)C(=O)O [Example 57, 3-[4-(4-hydroxyphenoxy)phenoxy]-L-phenylalanine] | 0.02 times | – | –
